Measured values: US6503552B1, “Adding flavidin to a composition as an anti-oxidant” (Council of Scientific and Industrial Research, priority 2000, dated 2003)

Test: antioxidant activity in β-carotene-linoleate system (bleaching of β-carotene)
Type: biochemical
Conditions: for bleaching time of β-carotene: different concentrations, controls (no additive) decolorized within 120 min; for antioxidant activity: 120 min incubation at 50° C.
Procedure: In another embodiment of the present invention, evaluation of the antioxidant activity of flavidin has been carried out employing the procedure of Hiddgi et. al. (Phytochem, 37, 1585, 1994) with minor modifications said method comprises the following steps: […]
i) preparing assay reagent of β-carotene in chloroform by mixing linoleic acid and 200 mg of Tween 40 (polyoxyethylene sorbitan monopalmitate), ii) warming polyoxyethylene sorbitan monopalmitate (Tween 40) at a temperature of about 50° C. in a water bath, iii) removing chloroform from assay reagent at a temperature of about 40° C. under vacuum using a rotary evaporator, iv) diluting the resulting solution with triple distilled water and mixing the resulting emulsion well for one minute, v) further diluting the resulting emulsion with oxygenated water, vi) transferring aliquots of the reagent as in step (v) into tubes containing 0.2 ml of desired amount of antioxidant in ethanol, vii) keeping a control of 0.2 ml of ethanol and 4 ml of reagent as prepared in step (v). viii) immediately taking optical density of all sample (t=0) and also taking the O.D at 15 min. interval for 2 hr. (t=120), ix) incubating the tubes in water bath at a temperature of about 50° C. between each measurement taken, and x) measuring the color till the color of β-carotene disappears.
The procedure of Hiddgo et al., (Phytochemistry, 37, 1585, 1994) was followed for testing of antioxidant activity of the flavidin with minor modification. The assay reagent was prepared as follows: 0.2 mg of β-carotene in 0.5 ml of chloroform was added to 20 mg of linoleic acid and 200 mg of Tween 40 (polyoxyethylene sorbitan monopalmitate) were mixed. Tween 40 was warmed in a water bath at 50° C. before use. The chloroform was removed at 40° C. under vacuum using a rotary evaporator. The resulting solution was immediately diluted with 10 ml of triple-distilled water and the emulsion was mixed well for 1 min. The emulsion was further diluted with 40 ml oxygenated water. Four ml aliquots of this reagent were transferred into different tubes containing 0.2 ml of the desired amount of antioxidant in ethanol. A control consisting of 0.2 ml of ethanol and 4 ml of emulsion was prepared. Optical density of all samples were taken immediately (t=0) and at 15 min intervals for 2 h (t=120). The tubes were placed in a water bath at 50° C. between measurements. All determinations were preformed in duplicate. Measurement of color was recorded until the color of β-carotene disappears.
The antioxidant activity (AA) of the isolated compound was evaluated in terms of bleaching the β-carotene using the formula of Hiddgo et al., (Phytochemistry, 37, 1585, 1994). AA=100[1−(Ao−At)/(A^oo−A^ot)] where Ao and A^o are the absorbance measured at the beginning of the incubation for flavidin and the control, respectively, and At and A^ot are the absorbance measured in the presence and absence of the flavidin after incubation for 120 min.

Row | SMILES | bleaching time of β-carotene | antioxidant activity (10 ppm) [%] | antioxidant activity (25 ppm) [%] | antioxidant activity (50 ppm, maximum activity) [%]
1 | COc1ccc(O)c(C(C)(C)C)c1 [BHA, butylated hydroxy anisole, reference compound] | enhanced | – | – | –
2 | Oc1cc2c3c(c1)COc1cc(O)cc(c1-3)CC2 [flavidin, 2,7-dihydroxy 9,10-dihydrophenanthro-4,5 bcd-pyran] | enhanced | 68.5 | 79 | 90.2
